In patent US20250145665A1, “MACROCYCLIC PEPTIDES USEFUL AS MODULATORS OF TNF ALPHA” (Bristol-Myers Squibb Company, priority 2023, published 2025):
Starred links: 1 amine or outer side, 2 acyl side, 3 side chain; linkers in the order of their positions; H or OH if unused. Positions of bridges follow the written chain, without caps; N, C: chain ends. Non-standard residues stand in square brackets, D forms with d. Residues, ends and D or L forms follow the SMILES beside them. *: point of attachment. Bip(4'-NHCO-C6H4-3-CH2COOH) = N[C@@H](Cc1ccc(-c2ccc(NC(=O)c3cccc(CC(=O)O)c3)cc2)cc1)C(=O)O; Bip(4'-NH) = O=C([C@H](Cc1ccc(-c2ccc(N[*:3])cc2)cc1)N[*:1])[*:2]; dArg(ω-Bn(3-CH2OH)) = N=C(NCCC[C@@H](N)C(=O)O)NCc1cccc(CO)c1; Indazole3carbonyl(1-CH2COOH) = O=C(O)Cn1nc(C(=O)*)c2ccccc21; Bip(4'-COOH) = N[C@@H](Cc1ccc(-c2ccc(C(=O)O)cc2)cc1)C(=O)O; X87 = N=C(NCCC[C@@H](N[*:1])C(=O)[*:2])NCc1ccc(C(=O)O)cc1; X44 = N#Cc1ccc(CNC(=N)NCCC[C@@H](N[*:1])C(=O)[*:2])cc1; X28 = N=C(NCCC[C@@H](N[*:1])C(=O)[*:2])NCc1ccc(CN)cc1; X7 = N=C(NCCC[C@@H](N[*:1])C(=O)[*:2])NCc1ccc2occc2c1; Ala(morpholin-4-yl) = N[C@@H](CN1CCOCC1)C(=O)O; Benzoyl(3-OCH2COOH) = O=C(O)COc1cccc(C(=O)*)c1; Benzoyl(4-OCH2COOH) = O=C(O)COc1ccc(C(=O)*)cc1; Bip = N[C@@H](Cc1ccc(-c2ccccc2)cc1)C(=O)O; 2Pal = N[C@@H](Cc1ccccn1)C(=O)O; Cha = N[C@@H](CC1CCCCC1)C(=O)O; X62 = COC(=O)Cc1cccc(C(=O)*)c1; Tle = CC(C)(C)[C@H](N)C(=O)O; Sar = CNCC(=O)O

biological target: TNFα (Homo sapiens, UniProt P01375); assay: TNF-Induced HEK-Blue Assay; format: cell-based; details: not given
Sequence (P01375 77-233 limits assumed): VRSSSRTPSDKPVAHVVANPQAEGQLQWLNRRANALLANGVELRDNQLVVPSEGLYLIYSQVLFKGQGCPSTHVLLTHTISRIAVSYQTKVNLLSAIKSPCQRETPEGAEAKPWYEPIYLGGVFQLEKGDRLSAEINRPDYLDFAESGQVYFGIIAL

SMILES | IC50 [µM]
CC(C)C[C@@H]1NC(=O)[C@H](CCCNC(=N)N)NC(=O)[C@H](C(C)C)NC(=O)[C@@H]2CCCN2C(=O)[C@H](C(C)C)NC(=O)[C@@H](CCCNC(=N)NCc2ccc(CN)cc2)NC(=O)[C@H](CC(=O)O)NC(=O)[C@@H]2CCCN2C(=O)CN(C)C(=O)[C@H](Cc2ccc(-c3ccc(NC(=O)c4nn(CC(=O)O)c5ccccc45)cc3)cc2)NC(=O)[C@H](Cc2ccc(-c3ccccc3)cc2)NC(=O)[C@H](CN2CCOCC2)NC(=O)CSC[C@@H](C(=O)NCC(N)=O)NC1=O [Example 501] ({CH2CO}-[Ala(morpholin-4-yl)][Bip][Bip(4'-NH)](Indazole3carbonyl(1-CH2COOH))[Sar]PD[X28]VPVRLCG-NH2; thioether N-13) | 0.05 to 0.2
CC[C@H](C)[C@@H]1NC(=O)[C@@H](CCCNC(=N)N)NC(=O)[C@H](CC(=O)O)NC(=O)[C@H](Cc2cnc[nH]2)NC(=O)CN(C)C(=O)[C@H](Cc2ccc(-c3ccc(NC(=O)c4cccc(CC(=O)OC)c4)cc3)cc2)NC(=O)[C@H](Cc2ccc(-c3ccccc3)cc2)NC(=O)[C@H](C(C)(C)C)NC(=O)CSC[C@@H](C(=O)NCC(N)=O)NC(=O)[C@H](CC(C)C)NC(=O)[C@H](Cc2c[nH]cn2)NC(=O)[C@H](C(C)C)NC(=O)[C@@H]2CCCN2C1=O [Example 502] ({CH2CO}-[Tle][Bip][Bip(4'-NH)](X62)[Sar]HD[dR]IPVHLCG-NH2; thioether N-13) | < 0.05
CC[C@H](C)[C@@H]1NC(=O)[C@@H](CCCNC(=N)N)NC(=O)[C@H](CC(=O)O)NC(=O)[C@H](Cc2cnc[nH]2)NC(=O)CN(C)C(=O)[C@H](Cc2ccc(-c3ccc(NC(=O)c4cccc(CC(=O)OC)c4)cc3)cc2)NC(=O)[C@H](Cc2ccc(-c3ccc(C(=O)O)cc3)cc2)NC(=O)[C@H](CC2CCCCC2)NC(=O)CSC[C@@H](C(=O)NCC(N)=O)NC(=O)[C@H](CC(C)C)NC(=O)[C@H](Cc2c[nH]cn2)NC(=O)[C@H](C(C)C)NC(=O)[C@@H]2CCCN2C1=O [Example 503] ({CH2CO}-[Cha][Bip(4'-COOH)][Bip(4'-NH)](X62)[Sar]HD[dR]IPVHLCG-NH2; thioether N-13) | < 0.05
CC(C)C[C@@H]1NC(=O)[C@H](CCCNC(=N)N)NC(=O)[C@H](C(C)C)NC(=O)[C@@H]2CCCN2C(=O)[C@H](C(C)C)NC(=O)[C@@H](CCCNC(=N)NCc2ccc(C#N)cc2)NC(=O)[C@H](CC(=O)O)NC(=O)[C@@H]2CCCN2C(=O)CN(C)C(=O)[C@H](Cc2ccc(-c3ccc(NC(=O)c4nn(CC(=O)O)c5ccccc45)cc3)cc2)NC(=O)[C@H](Cc2ccc(-c3ccccc3)cc2)NC(=O)[C@H](CN2CCOCC2)NC(=O)CSC[C@@H](C(=O)NCC(N)=O)NC1=O [Example 506] ({CH2CO}-[Ala(morpholin-4-yl)][Bip][Bip(4'-NH)](Indazole3carbonyl(1-CH2COOH))[Sar]PD[X44]VPVRLCG-NH2; thioether N-13) | < 0.05
CC(C)C[C@@H]1NC(=O)[C@H](CCCNC(=N)N)NC(=O)[C@H](C(C)C)NC(=O)[C@@H]2CCCN2C(=O)[C@H](C(C)C)NC(=O)[C@@H](CCCNC(=N)NCc2ccc(C(=O)O)cc2)NC(=O)[C@H](CC(=O)O)NC(=O)[C@@H]2CCCN2C(=O)CN(C)C(=O)[C@H](Cc2ccc(-c3ccc(NC(=O)c4nn(CC(=O)O)c5ccccc45)cc3)cc2)NC(=O)[C@H](Cc2ccc(-c3ccccc3)cc2)NC(=O)[C@H](CN2CCOCC2)NC(=O)CSC[C@@H](C(=O)NCC(N)=O)NC1=O [Example 507] ({CH2CO}-[Ala(morpholin-4-yl)][Bip][Bip(4'-NH)](Indazole3carbonyl(1-CH2COOH))[Sar]PD[X87]VPVRLCG-NH2; thioether N-13) | < 0.05

same assay, conditions: HEK-Blue-CD40L cells, NF-kB-driven secreted alkaline phosphatase reporter; TNFα 0.5 ng/ml; 18 h; read-out: TNF induced HEK-Blue assay IC50 value

IC50 [µM] | SMILES
< 0.05 | CC(C)C[C@@H]1NC(=O)[C@H](Cc2cnc[nH]2)NC(=O)[C@H](C(C)C)NC(=O)[C@@H]2CCCN2C(=O)[C@H](C(C)C)NC(=O)[C@@H](CCCNC(=N)N)NC(=O)[C@H](CC(=O)O)NC(=O)[C@H](Cc2ccccn2)NC(=O)CN(C)C(=O)[C@H](Cc2ccc(-c3ccc(NC(=O)c4ccc(OCC(=O)O)cc4)cc3)cc2)NC(=O)[C@H](Cc2ccc(-c3ccccc3)cc2)NC(=O)[C@H](CN2CCOCC2)NC(=O)CSC[C@@H](C(=O)NCC(N)=O)NC1=O [Example 494] ({CH2CO}-[Ala(morpholin-4-yl)][Bip][Bip(4'-NH)](Benzoyl(4-OCH2COOH))[Sar][2Pal]D[dR]VPVHLCG-NH2; thioether N-13)
< 0.05 | CC(C)C[C@@H]1NC(=O)[C@H](Cc2cnc[nH]2)NC(=O)[C@H](C(C)C)NC(=O)[C@@H]2CCCN2C(=O)[C@H](C(C)C)NC(=O)[C@@H](CCCNC(=N)N)NC(=O)[C@H](CC(=O)O)NC(=O)[C@H](Cc2cnc[nH]2)NC(=O)CN(C)C(=O)[C@H](Cc2ccc(-c3ccc(NC(=O)c4ccc(OCC(=O)O)cc4)cc3)cc2)NC(=O)[C@H](Cc2ccc(-c3ccccc3)cc2)NC(=O)[C@H](CN2CCOCC2)NC(=O)CSC[C@@H](C(=O)NCC(N)=O)NC1=O [Example 495] ({CH2CO}-[Ala(morpholin-4-yl)][Bip][Bip(4'-NH)](Benzoyl(4-OCH2COOH))[Sar]HD[dR]VPVHLCG-NH2; thioether N-13)
< 0.05 | CC[C@H](C)[C@@H]1NC(=O)[C@@H](CCCNC(=N)NCc2ccc3occc3c2)NC(=O)[C@H](CC(=O)O)NC(=O)[C@H](Cc2cnc[nH]2)NC(=O)CN(C)C(=O)[C@H](Cc2ccc(-c3ccc(NC(=O)c4cccc(OCC(=O)O)c4)cc3)cc2)NC(=O)[C@H](Cc2ccc(-c3ccccc3)cc2)NC(=O)[C@H](CC2CCCCC2)NC(=O)CSC[C@@H](C(=O)NCC(N)=O)NC(=O)[C@H](CC(C)C)NC(=O)[C@H](Cc2cnc[nH]2)NC(=O)[C@H](C(C)C)NC(=O)[C@@H]2CCCN2C1=O [Example 499] ({CH2CO}-[Cha][Bip][Bip(4'-NH)](Benzoyl(3-OCH2COOH))[Sar]HD[X7]IPVHLCG-NH2; thioether N-13)
< 0.05 | CC(C)C[C@@H]1NC(=O)[C@H](CCCNC(=N)N)NC(=O)[C@H](C(C)C)NC(=O)[C@@H]2CCCN2C(=O)[C@H](C(C)C)NC(=O)[C@@H](CCCNC(=N)NCc2cccc(CO)c2)NC(=O)[C@H](CC(=O)O)NC(=O)[C@@H]2CCCN2C(=O)CN(C)C(=O)[C@H](Cc2ccc(-c3ccc(NC(=O)c4ccc(OCC(=O)O)cc4)cc3)cc2)NC(=O)[C@H](Cc2ccc(-c3ccccc3)cc2)NC(=O)[C@H](CN2CCOCC2)NC(=O)CSC[C@@H](C(=O)NCC(N)=O)NC1=O [Example 500] ({CH2CO}-[Ala(morpholin-4-yl)][Bip][Bip(4'-NH)](Benzoyl(4-OCH2COOH))[Sar]PD[dArg(ω-Bn(3-CH2OH))]VPVRLCG-NH2; thioether N-13)
< 0.05 | CC[C@H](C)[C@@H]1NC(=O)[C@@H](CCCNC(=N)NCc2cccc(CO)c2)NC(=O)[C@H](CC(=O)O)NC(=O)[C@H](Cc2cnc[nH]2)NC(=O)CN(C)C(=O)[C@H](Cc2ccc(-c3ccc(NC(=O)c4cccc(CC(=O)O)c4)cc3)cc2)NC(=O)[C@H](Cc2ccc(-c3ccccc3)cc2)NC(=O)[C@H](CC2CCCCC2)NC(=O)CSC[C@@H](C(=O)NCC(N)=O)NC(=O)[C@H](CC(C)C)NC(=O)[C@H](Cc2c[nH]cn2)NC(=O)[C@H](C(C)C)NC(=O)[C@@H]2CCCN2C1=O [Example 504] ({CH2CO}-[Cha][Bip][Bip(4'-NHCO-C6H4-3-CH2COOH)][Sar]HD[dArg(ω-Bn(3-CH2OH))]IPVHLCG-NH2; thioether N-13)

The next lines start with the compound.

SMILES | IC50 [µM]
CC(C)C[C@@H]1NC(=O)[C@H](Cc2cnc[nH]2)NC(=O)[C@H](C(C)C)NC(=O)[C@@H]2CCCN2C(=O)[C@H](C(C)C)NC(=O)[C@@H](CCCNC(=N)N)NC(=O)[C@H](CC(=O)O)NC(=O)[C@@H]2CCCN2C(=O)CN(C)C(=O)[C@H](Cc2ccc(-c3ccc(NC(=O)c4ccc(OCC(=O)O)cc4)cc3)cc2)NC(=O)[C@H](Cc2ccc(-c3ccccc3)cc2)NC(=O)[C@H](CC2CCCCC2)NC(=O)CSC[C@@H](C(=O)NCC(N)=O)NC1=O [Example 493] ({CH2CO}-[Cha][Bip][Bip(4'-NH)](Benzoyl(4-OCH2COOH))[Sar]PD[dR]VPVHLCG-NH2; thioether N-13) | 0.05 to 0.2
CC[C@H](C)[C@@H]1NC(=O)[C@@H](CCCNC(=N)N)NC(=O)[C@H](CC(=O)O)NC(=O)[C@H](Cc2cnc[nH]2)NC(=O)CN(C)C(=O)[C@H](Cc2ccc(-c3ccc(NC(=O)c4cccc(CC(=O)O)c4)cc3)cc2)NC(=O)[C@H](Cc2ccc(-c3ccccc3)cc2)NC(=O)[C@H](C(C)(C)C)NC(=O)CSC[C@@H](C(=O)NCC(N)=O)NC(=O)[C@H](CC(C)C)NC(=O)[C@H](Cc2cnc[nH]2)NC(=O)[C@H](C(C)C)NC(=O)[C@@H]2CCCN2C1=O [Example 496] ({CH2CO}-[Tle][Bip][Bip(4'-NHCO-C6H4-3-CH2COOH)][Sar]HD[dR]IPVHLCG-NH2; thioether N-13) | < 0.05
CC[C@H](C)[C@@H]1NC(=O)[C@@H](CCCNC(=N)NCc2cccc(CO)c2)NC(=O)[C@H](CC(=O)O)NC(=O)[C@H](Cc2cnc[nH]2)NC(=O)CN(C)C(=O)[C@H](Cc2ccc(-c3ccc(NC(=O)c4cccc(OCC(=O)O)c4)cc3)cc2)NC(=O)[C@H](Cc2ccc(-c3ccccc3)cc2)NC(=O)[C@H](CC2CCCCC2)NC(=O)CSC[C@@H](C(=O)NCC(N)=O)NC(=O)[C@H](CC(C)C)NC(=O)[C@H](Cc2cnc[nH]2)NC(=O)[C@H](C(C)C)NC(=O)[C@@H]2CCCN2C1=O [Example 498] ({CH2CO}-[Cha][Bip][Bip(4'-NH)](Benzoyl(3-OCH2COOH))[Sar]HD[dArg(ω-Bn(3-CH2OH))]IPVHLCG-NH2; thioether N-13) | 0.05 to 0.2
CC[C@H](C)[C@@H]1NC(=O)[C@@H](CCCNC(=N)NCc2ccc3occc3c2)NC(=O)[C@H](CC(=O)O)NC(=O)[C@H](Cc2cnc[nH]2)NC(=O)CN(C)C(=O)[C@H](Cc2ccc(-c3ccc(NC(=O)c4cccc(CC(=O)O)c4)cc3)cc2)NC(=O)[C@H](Cc2ccc(-c3ccccc3)cc2)NC(=O)[C@H](CC2CCCCC2)NC(=O)CSC[C@@H](C(=O)NCC(N)=O)NC(=O)[C@H](CC(C)C)NC(=O)[C@H](Cc2c[nH]cn2)NC(=O)[C@H](C(C)C)NC(=O)[C@@H]2CCCN2C1=O [Example 505] ({CH2CO}-[Cha][Bip][Bip(4'-NHCO-C6H4-3-CH2COOH)][Sar]HD[X7]IPVHLCG-NH2; thioether N-13) | 0.05 to 0.2
